Four compounds from publication PMC8550792, “Evolution of kinase polypharmacology across HSP90 drug discovery” (Cell Chemical Biology, 2021) can be followed below.

Experiment in all cases: biochemical
Holding throughout (type): biochemical

The target of experiment [1] is 382 unique human kinases (Homo sapiens, UniProt Q9H1R3). The conditions noted are these: kinase MLCK2/MYLK2, compound 10 uM; for remaining activity at 10 µM: read-out: % Enzyme Activity (relative to DMSO controls).
Experiment [2] deals with T1, 382 unique human kinases (Homo sapiens, UniProt P22607, K650M).
T1 construct: purchased Reaction Biology (HotSpot contract assay)
Conditions: FGFR3 (K650M), 10 uM; for remaining activity at 10 µM: read-out: % Enzyme Activity (relative to DMSO controls).

The target in experiment [3] is T2, 382 unique human kinases (Homo sapiens, UniProt P21802).
T2 construct: purchased Reaction Biology (HotSpot contract assay)
T2 sequence (P21802 22-821): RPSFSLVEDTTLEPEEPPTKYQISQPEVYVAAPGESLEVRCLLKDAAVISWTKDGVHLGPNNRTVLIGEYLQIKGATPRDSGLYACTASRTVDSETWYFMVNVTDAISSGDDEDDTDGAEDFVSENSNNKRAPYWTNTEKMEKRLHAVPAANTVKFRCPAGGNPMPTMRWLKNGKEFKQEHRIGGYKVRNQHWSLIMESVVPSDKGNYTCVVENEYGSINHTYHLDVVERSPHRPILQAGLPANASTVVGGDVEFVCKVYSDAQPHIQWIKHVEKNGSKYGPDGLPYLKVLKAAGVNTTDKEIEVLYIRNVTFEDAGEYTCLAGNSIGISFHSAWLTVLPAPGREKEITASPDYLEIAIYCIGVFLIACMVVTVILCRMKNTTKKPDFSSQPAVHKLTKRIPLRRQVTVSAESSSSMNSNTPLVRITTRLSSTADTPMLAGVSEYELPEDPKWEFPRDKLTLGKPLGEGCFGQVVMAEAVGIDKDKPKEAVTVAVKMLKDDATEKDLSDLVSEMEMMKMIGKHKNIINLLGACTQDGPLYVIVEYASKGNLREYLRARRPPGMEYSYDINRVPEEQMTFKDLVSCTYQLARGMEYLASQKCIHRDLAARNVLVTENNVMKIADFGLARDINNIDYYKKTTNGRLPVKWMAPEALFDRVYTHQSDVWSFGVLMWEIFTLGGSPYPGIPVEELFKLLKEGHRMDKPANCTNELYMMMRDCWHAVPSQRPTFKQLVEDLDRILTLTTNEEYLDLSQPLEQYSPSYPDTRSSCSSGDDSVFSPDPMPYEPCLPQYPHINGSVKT
Conditions: FGFR2, 10 uM; for remaining activity at 10 µM: read-out: % Enzyme Activity (relative to DMSO controls).

Experiment [4] deals with T3, 382 unique human kinases (Homo sapiens, UniProt Q13873).
T3 construct: purchased Reaction Biology (HotSpot contract assay)
T3 sequence (Q13873 27-1038): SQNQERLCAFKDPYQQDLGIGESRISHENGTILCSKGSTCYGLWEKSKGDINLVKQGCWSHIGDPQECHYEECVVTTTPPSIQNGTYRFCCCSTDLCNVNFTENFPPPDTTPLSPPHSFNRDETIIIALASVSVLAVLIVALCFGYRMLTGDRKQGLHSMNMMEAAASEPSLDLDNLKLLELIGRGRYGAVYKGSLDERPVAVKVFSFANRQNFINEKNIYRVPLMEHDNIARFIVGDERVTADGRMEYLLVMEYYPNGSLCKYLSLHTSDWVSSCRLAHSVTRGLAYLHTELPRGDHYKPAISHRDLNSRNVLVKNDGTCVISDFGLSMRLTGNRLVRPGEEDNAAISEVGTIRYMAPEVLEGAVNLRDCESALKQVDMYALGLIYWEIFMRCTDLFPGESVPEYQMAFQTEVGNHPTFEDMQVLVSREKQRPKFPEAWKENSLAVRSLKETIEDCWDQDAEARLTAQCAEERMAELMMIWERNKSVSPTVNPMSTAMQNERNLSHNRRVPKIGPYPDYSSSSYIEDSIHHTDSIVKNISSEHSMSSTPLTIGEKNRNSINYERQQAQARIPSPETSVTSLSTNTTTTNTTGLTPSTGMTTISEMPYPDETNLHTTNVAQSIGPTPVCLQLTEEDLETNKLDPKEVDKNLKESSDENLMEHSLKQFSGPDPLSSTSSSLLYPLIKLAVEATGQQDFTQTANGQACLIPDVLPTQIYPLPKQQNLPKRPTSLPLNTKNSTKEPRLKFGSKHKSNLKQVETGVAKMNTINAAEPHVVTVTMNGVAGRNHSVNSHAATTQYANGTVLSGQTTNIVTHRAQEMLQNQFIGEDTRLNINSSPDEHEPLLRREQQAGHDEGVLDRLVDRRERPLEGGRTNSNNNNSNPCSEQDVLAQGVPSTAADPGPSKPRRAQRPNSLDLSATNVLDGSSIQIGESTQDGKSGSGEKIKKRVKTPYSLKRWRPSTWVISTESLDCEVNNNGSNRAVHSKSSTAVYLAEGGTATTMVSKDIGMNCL
The conditions noted are these: BMPR2, 10 uM; for remaining activity at 10 µM: read-out: % Enzyme Activity (relative to DMSO controls).

The target in experiment [5] is T4, 382 unique human kinases (Homo sapiens, UniProt Q9BZL6, G870E).
T4 construct: purchased Reaction Biology (HotSpot contract assay)
T4 sequence (Q9BZL6 1-878 G870E): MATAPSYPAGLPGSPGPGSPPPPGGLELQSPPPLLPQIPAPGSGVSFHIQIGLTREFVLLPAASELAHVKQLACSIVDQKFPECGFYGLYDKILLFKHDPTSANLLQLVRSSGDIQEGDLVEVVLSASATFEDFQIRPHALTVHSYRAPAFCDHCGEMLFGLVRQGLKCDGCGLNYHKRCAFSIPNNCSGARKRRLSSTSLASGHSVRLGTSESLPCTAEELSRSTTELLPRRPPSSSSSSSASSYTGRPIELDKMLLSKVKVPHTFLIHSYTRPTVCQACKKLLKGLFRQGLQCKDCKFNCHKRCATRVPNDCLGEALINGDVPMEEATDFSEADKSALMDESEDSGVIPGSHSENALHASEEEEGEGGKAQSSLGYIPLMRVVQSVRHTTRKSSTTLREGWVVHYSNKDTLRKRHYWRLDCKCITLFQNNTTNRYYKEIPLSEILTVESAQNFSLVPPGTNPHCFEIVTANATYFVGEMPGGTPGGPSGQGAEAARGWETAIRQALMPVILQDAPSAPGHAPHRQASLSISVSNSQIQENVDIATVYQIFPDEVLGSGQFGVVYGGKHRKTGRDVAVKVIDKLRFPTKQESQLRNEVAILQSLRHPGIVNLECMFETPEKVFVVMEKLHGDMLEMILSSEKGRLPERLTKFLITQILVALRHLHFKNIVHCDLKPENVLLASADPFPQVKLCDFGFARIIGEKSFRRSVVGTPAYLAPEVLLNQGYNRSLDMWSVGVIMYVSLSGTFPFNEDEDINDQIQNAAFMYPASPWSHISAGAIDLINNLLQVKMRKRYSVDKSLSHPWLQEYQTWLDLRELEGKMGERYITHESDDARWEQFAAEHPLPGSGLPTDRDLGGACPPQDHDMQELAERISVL
Conditions: PKD2 (G870E), [ATP] 30 µM, compound 10 uM; for remaining activity at 10 µM: read-out: % Enzyme Activity (relative to DMSO controls).

In experiment [6] the target is T5, 382 unique human kinases (Homo sapiens, UniProt Q5TCY1).
T5 construct: purchased Reaction Biology (HotSpot contract assay)
T5 sequence (Q5TCY1 whole entry): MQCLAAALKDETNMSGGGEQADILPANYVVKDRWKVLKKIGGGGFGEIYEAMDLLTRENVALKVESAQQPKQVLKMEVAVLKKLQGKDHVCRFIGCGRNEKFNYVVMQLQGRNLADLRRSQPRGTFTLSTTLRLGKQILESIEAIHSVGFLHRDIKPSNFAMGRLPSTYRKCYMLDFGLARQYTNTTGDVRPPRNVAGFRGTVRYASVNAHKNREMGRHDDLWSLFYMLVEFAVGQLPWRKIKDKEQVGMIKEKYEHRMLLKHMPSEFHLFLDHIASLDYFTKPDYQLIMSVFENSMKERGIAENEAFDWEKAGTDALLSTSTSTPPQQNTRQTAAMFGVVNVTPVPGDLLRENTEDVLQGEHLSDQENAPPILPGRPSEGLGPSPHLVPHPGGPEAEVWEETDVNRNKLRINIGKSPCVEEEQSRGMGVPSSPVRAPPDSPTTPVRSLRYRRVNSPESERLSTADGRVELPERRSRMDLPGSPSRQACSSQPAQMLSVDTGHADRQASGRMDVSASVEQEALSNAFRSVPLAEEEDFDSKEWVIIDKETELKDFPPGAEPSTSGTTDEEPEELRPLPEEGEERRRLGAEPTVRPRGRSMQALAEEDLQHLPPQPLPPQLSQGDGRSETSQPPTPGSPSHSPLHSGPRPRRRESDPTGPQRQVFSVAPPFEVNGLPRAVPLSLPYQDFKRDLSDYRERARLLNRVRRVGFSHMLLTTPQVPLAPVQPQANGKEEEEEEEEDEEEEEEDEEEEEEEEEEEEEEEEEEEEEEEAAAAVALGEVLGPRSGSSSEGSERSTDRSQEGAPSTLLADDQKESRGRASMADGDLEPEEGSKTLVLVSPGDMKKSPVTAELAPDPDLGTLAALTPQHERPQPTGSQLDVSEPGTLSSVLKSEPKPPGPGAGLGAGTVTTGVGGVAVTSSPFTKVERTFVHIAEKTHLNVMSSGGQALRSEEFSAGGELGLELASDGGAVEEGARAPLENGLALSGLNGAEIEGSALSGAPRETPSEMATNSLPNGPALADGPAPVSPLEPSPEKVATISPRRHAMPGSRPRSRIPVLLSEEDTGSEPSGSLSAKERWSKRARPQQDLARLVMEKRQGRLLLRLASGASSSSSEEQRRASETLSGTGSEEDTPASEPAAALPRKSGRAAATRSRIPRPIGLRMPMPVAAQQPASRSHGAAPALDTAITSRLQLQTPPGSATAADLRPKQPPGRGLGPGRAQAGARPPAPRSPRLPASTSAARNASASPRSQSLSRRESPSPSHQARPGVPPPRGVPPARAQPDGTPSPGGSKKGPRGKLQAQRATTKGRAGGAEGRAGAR
Conditions: TTBK1, 10 uM; for remaining activity at 10 µM: read-out: % Enzyme Activity (relative to DMSO controls).

The target in experiment [7] is T6, 382 unique human kinases (Homo sapiens, UniProt Q15746).
T6 construct: purchased Reaction Biology (HotSpot contract assay)
T6 sequence (Q15746 whole entry): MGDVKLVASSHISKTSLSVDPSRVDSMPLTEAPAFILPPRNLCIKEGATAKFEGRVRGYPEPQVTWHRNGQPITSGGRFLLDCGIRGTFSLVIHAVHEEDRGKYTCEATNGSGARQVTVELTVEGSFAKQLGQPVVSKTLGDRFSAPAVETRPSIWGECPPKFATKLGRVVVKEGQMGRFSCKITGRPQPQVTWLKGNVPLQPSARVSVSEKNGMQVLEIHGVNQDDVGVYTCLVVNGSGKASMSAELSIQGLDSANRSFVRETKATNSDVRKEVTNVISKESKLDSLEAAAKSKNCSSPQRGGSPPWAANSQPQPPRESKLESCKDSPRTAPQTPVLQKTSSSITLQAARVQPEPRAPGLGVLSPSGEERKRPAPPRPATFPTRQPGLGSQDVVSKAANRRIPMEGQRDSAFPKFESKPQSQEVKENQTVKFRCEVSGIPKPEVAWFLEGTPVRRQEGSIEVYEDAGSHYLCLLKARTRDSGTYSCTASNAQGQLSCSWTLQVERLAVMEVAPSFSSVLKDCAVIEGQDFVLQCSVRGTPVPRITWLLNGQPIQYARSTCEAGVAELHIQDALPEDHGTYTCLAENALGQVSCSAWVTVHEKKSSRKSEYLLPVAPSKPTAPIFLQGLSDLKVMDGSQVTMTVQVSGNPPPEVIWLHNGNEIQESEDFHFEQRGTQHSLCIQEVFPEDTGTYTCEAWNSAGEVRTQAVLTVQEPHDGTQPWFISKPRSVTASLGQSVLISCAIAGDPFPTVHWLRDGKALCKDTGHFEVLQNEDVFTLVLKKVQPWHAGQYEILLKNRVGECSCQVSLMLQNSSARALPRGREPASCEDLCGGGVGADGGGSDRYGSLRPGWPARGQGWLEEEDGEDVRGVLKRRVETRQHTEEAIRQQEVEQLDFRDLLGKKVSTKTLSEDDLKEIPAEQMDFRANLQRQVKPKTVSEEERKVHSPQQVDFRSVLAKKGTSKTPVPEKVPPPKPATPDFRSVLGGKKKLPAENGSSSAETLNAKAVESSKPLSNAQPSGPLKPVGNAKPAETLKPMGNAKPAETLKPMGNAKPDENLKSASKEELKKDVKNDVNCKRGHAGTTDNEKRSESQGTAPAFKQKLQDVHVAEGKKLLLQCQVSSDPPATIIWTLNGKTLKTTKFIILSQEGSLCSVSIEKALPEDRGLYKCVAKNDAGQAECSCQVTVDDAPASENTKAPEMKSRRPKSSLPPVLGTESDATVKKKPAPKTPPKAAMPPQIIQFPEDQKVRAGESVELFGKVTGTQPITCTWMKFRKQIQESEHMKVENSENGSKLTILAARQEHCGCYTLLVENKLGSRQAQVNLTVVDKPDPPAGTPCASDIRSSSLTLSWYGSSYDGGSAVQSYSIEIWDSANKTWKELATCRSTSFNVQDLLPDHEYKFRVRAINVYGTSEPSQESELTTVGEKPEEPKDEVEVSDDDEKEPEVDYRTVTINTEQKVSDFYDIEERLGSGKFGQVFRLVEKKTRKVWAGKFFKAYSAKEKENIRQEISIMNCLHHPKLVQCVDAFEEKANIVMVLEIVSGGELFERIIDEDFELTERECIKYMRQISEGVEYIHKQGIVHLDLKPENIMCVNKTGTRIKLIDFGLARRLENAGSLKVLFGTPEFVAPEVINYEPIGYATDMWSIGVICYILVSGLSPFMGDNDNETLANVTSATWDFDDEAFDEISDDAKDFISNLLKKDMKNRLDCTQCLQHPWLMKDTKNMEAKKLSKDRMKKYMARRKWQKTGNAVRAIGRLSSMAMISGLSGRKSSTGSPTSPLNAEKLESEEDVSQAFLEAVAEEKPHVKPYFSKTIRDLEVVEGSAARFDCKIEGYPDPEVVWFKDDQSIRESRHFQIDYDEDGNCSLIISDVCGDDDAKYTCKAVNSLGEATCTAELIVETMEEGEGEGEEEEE
The conditions noted are these: MLCK/MYLK, [ATP] 30 µM, compound 10 uM; for remaining activity at 10 µM: read-out: % Enzyme Activity (relative to DMSO controls).

Experiment [8] concerns the target T7, 382 unique human kinases (Homo sapiens, UniProt Q96RG2).
T7 construct: purchased Reaction Biology (HotSpot contract assay)
The conditions noted are these: PASK, [ATP] 50 µM.

The mark [9] stands for this setting: compound 10 uM, read-out: % Enzyme Activity (relative to DMSO controls).

Chain of 382 unique human kinases (Homo sapiens, UniProt Q9H1R3) (Q9H1R3 whole entry): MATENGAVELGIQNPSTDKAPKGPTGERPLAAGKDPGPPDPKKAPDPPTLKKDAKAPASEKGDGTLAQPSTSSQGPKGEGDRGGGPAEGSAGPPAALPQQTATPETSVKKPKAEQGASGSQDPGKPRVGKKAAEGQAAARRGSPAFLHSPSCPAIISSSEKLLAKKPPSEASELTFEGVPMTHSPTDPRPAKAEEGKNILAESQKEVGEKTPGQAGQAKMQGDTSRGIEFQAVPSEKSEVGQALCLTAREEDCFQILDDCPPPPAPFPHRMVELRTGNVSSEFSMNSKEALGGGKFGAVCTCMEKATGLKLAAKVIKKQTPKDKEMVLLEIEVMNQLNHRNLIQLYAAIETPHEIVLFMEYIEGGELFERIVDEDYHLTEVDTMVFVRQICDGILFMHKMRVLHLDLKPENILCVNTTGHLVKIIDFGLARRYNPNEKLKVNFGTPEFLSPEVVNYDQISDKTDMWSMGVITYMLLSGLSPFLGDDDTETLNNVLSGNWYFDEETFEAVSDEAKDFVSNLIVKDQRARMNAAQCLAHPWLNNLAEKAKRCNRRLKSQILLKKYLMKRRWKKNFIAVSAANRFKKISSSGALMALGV

Take `CC(C)c1cc(-c2n[nH]c(=O)n2-c2ccc3c(ccn3C)c2)c(O)cc1O` [Ganetespib (STA9090)]: the remaining activity at 10 µM stood at 80.2% at 382 unique human kinases [1], 86.5% at 382 unique human kinases [2], 68.3% at 382 unique human kinases [3] and 65.3% on 382 unique human kinases [4].
Take `CC(C)c1cc(-c2n[nH]c(=O)n2-c2ccc3c(ccn3C)c2)c(O)cc1O` [Ganetespib]: the remaining activity at 10 µM is 59.7% at 382 unique human kinases [5], 101% at 382 unique human kinases [6], 38.6% at 382 unique human kinases [7] and 12.1% on 382 unique human kinases [8] (setting [9]). Besides, the remaining activity at 1 µM at 382 unique human kinases [8] (compound 1 uM, read-out: % Enzyme Activity (relative to DMSO controls)) turned out to be 49.7%.
With `CCNC(=O)c1noc(-c2cc(C(C)C)c(O)cc2O)c1-c1ccc(CN2CCOCC2)cc1` [Luminespib (AUY-922)], the “% Enzyme Activity (relative to DMSO controls)” value on 382 unique human kinases [1] stood at 91.17%; at 382 unique human kinases [2], 70.76%; at 382 unique human kinases [3] it was 98.90%; at 382 unique human kinases [4], 104.76%. Further, the remaining activity at 10 µM was determined as 95.1% on 382 unique human kinases [1], 78.7% at 382 unique human kinases [2], 99.8% on 382 unique human kinases [3] and 108% at 382 unique human kinases [4].
For `CCNC(=O)c1noc(-c2cc(C(C)C)c(O)cc2O)c1-c1ccc(CN2CCOCC2)cc1` [Luminespib], the “% Enzyme Activity (relative to DMSO controls)” value at 382 unique human kinases [5] was determined as 103.84%; on 382 unique human kinases [6], 109.07%; on 382 unique human kinases [7], 95.43%; at 382 unique human kinases [8] (compound 10 uM), 98.65%. The remaining activity at 10 µM was determined as 104% on 382 unique human kinases [5], 109% on 382 unique human kinases [6], 97.5% on 382 unique human kinases [7] and 99% at 382 unique human kinases [8] (setting [9]).
